Test results from US10683297B2 (Sunshine Lake Pharma Co., Ltd., priority 2017, dated 2020).
pIC50: −log10 of the molar value.

Key:
[1] = Pharmacokinetics after intravenous and oral administration in rats; type: in vivo; details: for Clearance (CL) after iv dosing / AUC(0-t) / half-life / Vd: dose 1 mg/kg (Ex. 9: 0.6, Ex. 18: 0.5, Ex. 50: 0.96 mg/kg), iv dosing; for AUC(0-t) / half-life / Vd / bioavailability: rat, plasma; for Vd: read-out: Vss; for bioavailability: oral (generally 5 or 10 mg/kg) versus iv dosing, read-out: F (oral bioavailability)
Outline: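 Rats dosed i.v. (about 0.5, 0.6, 1 or 2 mg/kg) or p.o. (5 or 10 mg/kg) as solution, suspension or capsule. Plasma sampled over 24 h and quantified by LC/MS/MS in MRM mode with ESI.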

TYK2 (h) = molecular target: T1, TYK2 (h) (Homo sapiens, UniProt P29597); assay: TYK2 (h) kinase assay; type: biochemical; details: [γ-33P-ATP] 10 μM or KM values; 40 minutes at room temperature
T1 construct: purchased Millipore UK Ltd (assays performed there as a service)
Procedure: Kinase assays can be performed by measurement of incorporation of γ-^33P ATP into immobilized myelin basic protein (MBP). High binding white 384 well plates (Greiner) are coated with MBP (Sigma # M-1891) by incubation of 60 μL well of 20 μg/mL MBP in Tris-buffered saline (TBS; 50 mM Tris pH 8.0, 138 mM NaCl, 2.7 mM KCl) for 24 h at 4° C. Plates are washed 3× with 100 μL TBS. Kinase reactions are carried out in a total volume of 34 μL in kinase buffer (according to the need to make, for example, 5 mM Hepes pH 7.6, 15 mM NaCl, 0.01% bovine gamma globulin (Sigma #1-5506), 10 mM MgCl2, 1 mM DTT, 0.02% TritonX-100). Compound dilutions are performed in DMSO and added to assay wells to a final DMSO concentration of 1%. Each data point is measured in duplicate, and at least two duplicate assays are performed for each individual compound determination. Enzyme is added to final concentrations of 10 nM or 20 nM, for example. A mixture of unlabeled ATP and γ-^33P ATP is added to start the reaction (2×10^6 cpm of γ-^33P ATP per well (3000 Ci/mmole) and 10 μM unlabeled ATP, typically. The reactions are carried out for 1 hour at room temperature with shaking. Plates are washed 7× with TBS, followed by the addition of 50 μL well scintillation fluid (Wallac). Plates are read using a Wallac Trilux counter. This is only one format of such assays; various other formats are possible, as known to one skilled in the art.
The above assay procedure can be used to determine the IC50 for inhibition and/or the inhibition constant, Ki. […] The IC50 value is estimated by preparing a 10 point curve using a ½ log dilution series (for example, a typical curve may be prepared using the following compound concentrations: 3 μM, 1 μM, 0.3 μM, 0.1 μM, 0.03 μM, 0.01 μM, 0.003 μM, 0.001 μM, 0.0003 μM and 0 μM).
TYK2 (h) is incubated with 8 mM MOPS pH 7.0, 0.2 mM EDTA, 250 μM […], 10 mM MgAcetate and [γ-^33P-ATP] […] The reaction is initiated by the addition of the MgATP mix. After incubation for 40 minutes at room temperature, the reaction is stopped by the addition of 3% phosphoric acid solution. 10 μL of the reaction is then spotted onto a P30 filtermat and washed three times for 5 minutes in 75 mM phosphoric acid and once in methanol prior to drying and scintillation counting.
The kinase assays described herein were performed at Millipore UK Ltd, Dundee Technology Park, Dundee DD2 1SW, UK.

T1 sequence (P29597 whole entry): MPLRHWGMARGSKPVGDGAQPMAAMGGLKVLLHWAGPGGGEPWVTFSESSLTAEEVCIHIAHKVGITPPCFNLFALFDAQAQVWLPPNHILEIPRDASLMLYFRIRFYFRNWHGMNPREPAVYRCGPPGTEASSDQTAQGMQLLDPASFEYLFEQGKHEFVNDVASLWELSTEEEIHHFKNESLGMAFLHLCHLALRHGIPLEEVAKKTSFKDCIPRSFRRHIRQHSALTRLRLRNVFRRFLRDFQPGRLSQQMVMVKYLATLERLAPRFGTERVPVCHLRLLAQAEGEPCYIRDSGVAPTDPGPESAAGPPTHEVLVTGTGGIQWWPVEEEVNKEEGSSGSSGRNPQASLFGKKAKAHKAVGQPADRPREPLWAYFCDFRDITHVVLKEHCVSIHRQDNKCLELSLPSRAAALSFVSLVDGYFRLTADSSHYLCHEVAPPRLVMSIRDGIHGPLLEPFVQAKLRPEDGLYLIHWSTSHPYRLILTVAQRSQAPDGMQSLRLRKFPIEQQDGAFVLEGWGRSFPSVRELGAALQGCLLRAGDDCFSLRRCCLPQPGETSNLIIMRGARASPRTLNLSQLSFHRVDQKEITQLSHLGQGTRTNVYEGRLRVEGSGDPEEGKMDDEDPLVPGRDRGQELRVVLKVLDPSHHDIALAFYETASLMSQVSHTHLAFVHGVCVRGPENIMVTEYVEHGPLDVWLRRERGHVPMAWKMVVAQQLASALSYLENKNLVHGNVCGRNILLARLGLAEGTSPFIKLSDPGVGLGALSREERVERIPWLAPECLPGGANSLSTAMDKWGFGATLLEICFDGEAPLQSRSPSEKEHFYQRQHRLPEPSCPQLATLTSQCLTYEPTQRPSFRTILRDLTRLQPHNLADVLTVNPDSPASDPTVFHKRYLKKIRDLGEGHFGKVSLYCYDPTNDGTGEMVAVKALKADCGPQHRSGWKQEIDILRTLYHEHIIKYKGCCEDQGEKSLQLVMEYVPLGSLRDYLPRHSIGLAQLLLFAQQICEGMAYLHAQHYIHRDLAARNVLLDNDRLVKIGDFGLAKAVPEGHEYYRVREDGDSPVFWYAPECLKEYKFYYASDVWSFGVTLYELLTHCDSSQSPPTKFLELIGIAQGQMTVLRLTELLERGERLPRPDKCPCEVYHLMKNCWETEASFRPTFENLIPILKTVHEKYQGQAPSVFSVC

Clearance (CL) after iv dosing [1] [mL/min/kg] | AUC(0-t) [1] [ng·h/mL] | half-life [1] [h] | Vd [1] [L/kg] | bioavailability [1] [%] | pIC50 (TYK2 (h)) | SMILES
8.5 | 1960 | 1.1 | 0.73 | 50.2 |  | CCC1CN(c2ccc(C#N)cn2)CCC1Nc1nc(Nc2ccn3c(C)cnc3c2)ncc1Cl (centres unmarked) [Example 2, 6-(4-((5-chloro-2-((3-methylimidazo[1,2-a]pyridin-7-yl)amino)pyrimidin-4-yl)amino)-3-ethylpiperidin-1-yl)nicotinonitrile]
2.83 | 5130 | 2.61 | 0.61 | 116 | 8.40 | N#Cc1ccc(N2CCC(Nc3nc(Nc4ccn5c(C(F)F)nnc5c4)ncc3Cl)CC2)nc1 [Example 30, 6-(4-((5-chloro-2-((3-(difluoromethyl)-[1,2,4]triazolo[4,3-a]pyridin-7-yl)amino)pyrimidin-4-yl)amino)piperidin-1-yl)nicotinonitrile]
14.2 | 2020 | 1.53 | 0.96 | 180 | 8.70 | Cc1nc2cc(Nc3ncc(Cl)c(NC4CCN(c5ccc(C#N)cn5)CC4)n3)ccn2n1 [Example 32, 6-(4-((5-chloro-2-((2-methyl-[1,2,4]triazolo[1,5-a]pyridin-7-yl)amino)pyrimidin-4-yl)amino)piperidin-1-yl)nicotinonitrile]
5.83 | 2830 | 4.65 | 1.25 | 52 |  | CC(C)(O)c1nc2cc(Nc3ncc(Cl)c(NC4CCN(c5ccc(C#N)cn5)CC4)n3)ccn2n1 [Example 39, 6-(4-((5-chloro-2-((2-(2-hydroxypropan-2-yl)-[1,2,4]triazolo[1,5-a]pyridin-7-yl)amino)pyrimidin-4-yl)amino)piperidin-1-yl)nicotinonitrile]
4.83 | 3400 | 1.01 | 0.42 | 126 |  | Cn1cnc2cc(Nc3ncc(Cl)c(NC4CCN(c5ccc(C#N)cn5)CC4)n3)ccc21 [Example 46, 6-(4-((5-chloro-2-((1-methyl-1H-benzo[d]imidazol-5-yl)amino)pyrimidin-4-yl)amino)piperidin-1-yl)nicotinonitrile]
11.7 | 1490 | 0.78 | 0.87 | 144 |  | Cn1nnc2cc(Nc3ncc(Cl)c(NC4CCN(c5ccc(C#N)nn5)CC4)n3)ccc21 [Example 47, 6-(4-((5-chloro-2-((l-methyl-1H-benzo[d][1,2,3]triazol-5-yl)amino)pyrimidin-4-yl)amino)piperidin-1-yl)pyridazine-3-carbonitrile]
11.2 | 1510 | 1.08 | 0.89 | 79.4 |  | Cc1nc2cc(Nc3ncc(Cl)c(NC4CCN(c5ccc(C#N)cn5)CC4)n3)ccc2n1C [Example 48, 6-(4-((5-chloro-2-((1,2-dimethyl-1H-benzo[d]imidazol-5-yl)amino)pyrimidin-4-yl)amino)piperidin-1-yl)nicotinonitrile]
 |  |  |  |  | 9.05 | CC(O)Cn1cnc2cc(Nc3ncc(Cl)c(NC4CCN(c5ccc(C#N)cn5)CC4)n3)ccc21 (centres unmarked) [Example 61, 6-(4-((5-chloro-2-((1-(2-hydroxypropyl)-1H-benzo[d]imidazol-5-yl)amino)pyrimidin-4-yl)amino)piperidin-1-yl)nicotinonitrile]
11.2 | 1470 | 1.45 | 1.25 | 49.7 | 8.10 | CC(C)(O)Cc1nc2ccc(Nc3ncc(Cl)c(NC4CCN(c5ccc(C#N)cn5)CC4)n3)cn2n1 [Example 67, 6-(4-((5-chloro-2-((2-(2-hydroxy-2-methylpropyl)-[1,2,4]triazolo[1,5-a]pyridin-6-yl)amino)pyrimidin-4-yl)amino)piperidin-1-yl)nicotinonitrile]
15 | 1090 | 1.34 | 1.51 |  |  | CC(C)(O)c1cnc2cc(Nc3ncc(Cl)c(NC4CCN(c5ccc(C#N)cn5)CC4)n3)ccn12 [Example 68, 6-(4-((5-chloro-2-((3-(2-hydroxypropan-2-yl)imidazo[1,2-a]pyridin-7-yl)amino)pyrimidin-4-yl)amino)piperidin-1-yl)nicotinonitrile]
22.2 | 752 | 0.94 | 1.7 | 69.8 | 9.15 | CC(C)(O)Cn1nnc2cc(Nc3ncc(Cl)c(NC4CCN(c5ccc(C#N)cn5)CC4)n3)ccc21 [Example 69, 6-(4-((5-chloro-2-((1-(2-hydroxy-2-methylpropyl)-1H-benzo[d][1,2,3]triazol-5-yl)amino)pyrimidin-4-yl)amino)piperidin-1-yl)nicotinonitrile]
19.3 | 860 | 0.94 | 1.39 | 23.5 |  | CC(C)(O)c1cn2ccc(Nc3ncc(Cl)c(NC4CCN(c5ccc(C#N)cn5)CC4)n3)cc2n1 [Example 70, 6-(4-((5-chloro-2-((2-(2-hydroxypropan-2-yl)imidazo[1,2-a]pyridin-7-yl)amino)pyrimidin-4-yl)amino)piperidin-1-yl)nicotinonitrile]
36.5 | 464 | 0.7 | 1.8 | 56.4 |  | CC(C)(O)Cc1cn2cc(Nc3ncc(Cl)c(NC4CCN(c5ccc(C#N)cn5)CC4)n3)ccc2n1 [Example 73, 6-(4-((5-chloro-2-((2-(2-hydroxy-2-methylpropyl)imidazo[1,2-a]pyridin-6-yl)amino)pyrimidin-4-yl)amino)piperidin-1-yl)nicotinonitrile]
151 | 1860 | 0.843 | 0.623 |  | 8.05 | CC(C)(O)Cc1nc2cc(Nc3ncc(Cl)c(NC4CCN(c5ccc(C#N)nn5)CC4)n3)ccn2n1 [Example 77, 6-(4-((5-chloro-2-((2-(2-hydroxy-2-methylpropyl)-[1,2,4]triazolo[1,5-a]pyridin-7-yl)amino)pyrimidin-4-yl)amino)piperidin-1-yl)pyridazine-3-carbonitrile]
187 | 1490 | 0.986 | 0.795 | 84.8 | 8.30 | CC(C)(O)Cc1nc2cc(Nc3ncc(Cl)c(NC4CCN(c5ccc(C#N)cn5)CC4)n3)ccn2n1 [Example 78, 6-(4-((5-chloro-2-((2-(2-hydroxy-2-methylpropyl)-[1,2,4]triazolo[1,5-a]pyridin-7-yl)amino)pyrimidin-4-yl)amino)piperidin-1-yl)nicotinonitrile]
272 | 1020 | 0.762 | 1.23 | 42.1 |  | CC(C)(O)Cc1nc2ccc(Nc3ncc(Cl)c(NC4CCN(c5ccc(C#N)nn5)CC4)n3)cn2n1 [Example 79, 6-(4-((5-chloro-2-((2-(2-hydroxy-2-methylpropyl)-[1,2,4]triazolo[1,5-a]pyridin-6-yl)amino)pyrimidin-4-yl)amino)piperidin-1-yl)pyridazine-3-carbonitrile]
